From PubChem BioAssay AID2060901 (Molecular Pharmacology Branch, DTP, NCI, 2025)

Tested on: 422866-222-R5-J1-PDC complex spheroids viability
Assay: Anticancer human tumor 422866-222-R5-J1-PDC patient-derived pancreatic adenocarcinoma cell line growth inhibition [RAS]
Conditions: for IC50: curve of first compound; for viability, T/C: stronger effect = lower value
Procedure, shortened: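 Agents were tested in combination matrices in half-log decrements from a top concentration at or near clinical Cmax (10 microM if undetermined). Targets were multi-cell spheroids of tumour lines plus HUVEC and MSC stromal cells.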

[1] = second compound 0.000949 µM, first compound 0.0316 µM
[2] = second compound 0.000949 µM, first compound 0.1 µM
[3] = second compound 0.003 µM, first compound 0.0316 µM
[4] = second compound 0.003 µM, first compound 0.1 µM
[5] = second compound 0.00949 µM, first compound 0.0316 µM
[6] = second compound 0.00949 µM, first compound 0.1 µM
[7] = second compound 0.03 µM, first compound 0.0316 µM
[8] = second compound 0.03 µM, first compound 0.1 µM
[9] = second compound 0.0949 µM, first compound 0.0316 µM
[10] = second compound 0.0949 µM, first compound 0.1 µM
[11] = second compound 0.3 µM, first compound 0.0316 µM
[12] = second compound 0.3 µM, first compound 0.1 µM
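Further: spheroids exposed to compounds for 7 days.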
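Wherever viability, T/C is given: 100% = DMSO vehicle control viability.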

## CC1(C)CCC(Nc2ncc(C(F)(F)F)c(-c3c[nH]c4c(P(C)(C)=O)c(C#N)ccc34)n2)CN1 (stereo unspecified) + C=CC(=O)N1CCN(c2nc(OCC3CCCN3C)nc3c(F)c(-c4nc(N)cc(C)c4C(F)(F)F)c(Cl)cc23)C(C)C1
Second compound 0.00316 µM
  IC50: < 0.949 nM
Second compound 0.01 µM
  IC50: < 0.949 nM
Second compound 0.0316 µM
  IC50: < 0.949 nM
Second compound 0.1 µM
  IC50: < 0.949 nM
Second compound 0.316 µM
  IC50: < 0.949 nM
Second compound 1 µM
  IC50: < 0.949 nM
Second compound 0.00316 µM, first compound 0.000949 µM
  viability, T/C: 27.1%
Second compound 0.00316 µM, first compound 0.003 µM
  viability, T/C: 29.2%
Second compound 0.00316 µM, first compound 0.00949 µM
  viability, T/C: 25.8%
Second compound 0.00316 µM, first compound 0.03 µM
  viability, T/C: 25.1%
Second compound 0.00316 µM, first compound 0.0949 µM
  viability, T/C: 27.3%
Second compound 0.00316 µM, first compound 0.3 µM
  viability, T/C: 28.8%
Second compound 0.01 µM, first compound 0.000949 µM
  viability, T/C: 23.1%
Second compound 0.01 µM, first compound 0.003 µM
  viability, T/C: 20.7%
Second compound 0.01 µM, first compound 0.00949 µM
  viability, T/C: 28.3%
Second compound 0.01 µM, first compound 0.03 µM
  viability, T/C: 24.7%
Second compound 0.01 µM, first compound 0.0949 µM
  viability, T/C: 26.8%
Second compound 0.01 µM, first compound 0.3 µM
  viability, T/C: 28.3%
Second compound 0.0316 µM, first compound 0.000949 µM
  viability, T/C: 24.6%
Second compound 0.0316 µM, first compound 0.003 µM
  viability, T/C: 24.4%
Second compound 0.0316 µM, first compound 0.00949 µM
  viability, T/C: 22.2%
Second compound 0.0316 µM, first compound 0.03 µM
  viability, T/C: 23.3%
Second compound 0.0316 µM, first compound 0.0949 µM
  viability, T/C: 27.2%
Second compound 0.0316 µM, first compound 0.3 µM
  viability, T/C: 27.4%
Second compound 0.1 µM, first compound 0.000949 µM
  viability, T/C: 24.6%
Second compound 0.1 µM, first compound 0.003 µM
  viability, T/C: 22.3%
Second compound 0.1 µM, first compound 0.00949 µM
  viability, T/C: 25.5%
Second compound 0.1 µM, first compound 0.03 µM
  viability, T/C: 23.4%
Second compound 0.1 µM, first compound 0.0949 µM
  viability, T/C: 26.6%
Second compound 0.1 µM, first compound 0.3 µM
  viability, T/C: 27.6%
Second compound 0.316 µM, first compound 0.000949 µM
  viability, T/C: 20%
Second compound 0.316 µM, first compound 0.003 µM
  viability, T/C: 20.3%
Second compound 0.316 µM, first compound 0.00949 µM
  viability, T/C: 25.5%
Second compound 0.316 µM, first compound 0.03 µM
  viability, T/C: 24.6%
Second compound 0.316 µM, first compound 0.0949 µM
  viability, T/C: 25.8%
Second compound 0.316 µM, first compound 0.3 µM
  viability, T/C: 24.5%
Second compound 1 µM, first compound 0.000949 µM
  viability, T/C: 22.1%
Second compound 1 µM, first compound 0.003 µM
  viability, T/C: 22.3%
Second compound 1 µM, first compound 0.00949 µM
  viability, T/C: 21.1%
Second compound 1 µM, first compound 0.03 µM
  viability, T/C: 24.2%
Second compound 1 µM, first compound 0.0949 µM
  viability, T/C: 30.4%
Second compound 1 µM, first compound 0.3 µM
  viability, T/C: 26.2%

## CC(C)n1nc(-c2ccc3oc(N)nc3c2)c2c(N)ncnc21 + CCn1c(-c2cccnc2C(C)OC)c2c3cc(ccc31)N1CCOC(CC(NC(=O)C(C(C)C)N(C)C(=O)C3(F)CCN(C(=O)C#CC(C)(C)N(C)C)CC3)C(=O)N3CCCC(N3)C(=O)OCC(C)(C)C2)C1
Second compound 0.000949 µM
  IC50: < 0.316 nM
Second compound 0.003 µM
  IC50: < 0.316 nM
Second compound 0.00949 µM
  IC50: < 0.316 nM
Second compound 0.03 µM
  IC50: < 0.316 nM
Second compound 0.0949 µM
  IC50: < 0.316 nM
Second compound 0.3 µM
  IC50: < 0.316 nM
Second compound 0.000949 µM, first compound 0.000316 µM
  viability, T/C: 26.9%
Second compound 0.000949 µM, first compound 0.001 µM
  viability, T/C: 24.3%
Second compound 0.000949 µM, first compound 0.00316 µM
  viability, T/C: 24.7%
Second compound 0.000949 µM, first compound 0.01 µM
  viability, T/C: 22.9%
[1]
  viability, T/C: 23.1%
[2]
  viability, T/C: 22.1%
Second compound 0.003 µM, first compound 0.000316 µM
  viability, T/C: 23.4%
Second compound 0.003 µM, first compound 0.001 µM
  viability, T/C: 18.7%
Second compound 0.003 µM, first compound 0.00316 µM
  viability, T/C: 21%
Second compound 0.003 µM, first compound 0.01 µM
  viability, T/C: 17.6%
[3]
  viability, T/C: 14.1%
[4]
  viability, T/C: 16.5%
Second compound 0.00949 µM, first compound 0.000316 µM
  viability, T/C: 23.4%
Second compound 0.00949 µM, first compound 0.001 µM
  viability, T/C: 25.9%
Second compound 0.00949 µM, first compound 0.00316 µM
  viability, T/C: 19.4%
Second compound 0.00949 µM, first compound 0.01 µM
  viability, T/C: 16.5%
[5]
  viability, T/C: 14.7%
[6]
  viability, T/C: 12.2%
Second compound 0.03 µM, first compound 0.000316 µM
  viability, T/C: 21.5%
Second compound 0.03 µM, first compound 0.001 µM
  viability, T/C: 17.6%
Second compound 0.03 µM, first compound 0.00316 µM
  viability, T/C: 17.5%
Second compound 0.03 µM, first compound 0.01 µM
  viability, T/C: 16.6%
[7]
  viability, T/C: 15.4%
[8]
  viability, T/C: 15.6%
Second compound 0.0949 µM, first compound 0.000316 µM
  viability, T/C: 17.8%
Second compound 0.0949 µM, first compound 0.001 µM
  viability, T/C: 15.4%
Second compound 0.0949 µM, first compound 0.00316 µM
  viability, T/C: 16.9%
Second compound 0.0949 µM, first compound 0.01 µM
  viability, T/C: 15.2%
[9]
  viability, T/C: 12.2%
[10]
  viability, T/C: 12.5%
Second compound 0.3 µM, first compound 0.000316 µM
  viability, T/C: 15.4%
Second compound 0.3 µM, first compound 0.001 µM
  viability, T/C: 18.8%
Second compound 0.3 µM, first compound 0.00316 µM
  viability, T/C: 15.2%
Second compound 0.3 µM, first compound 0.01 µM
  viability, T/C: 15.1%
[11]
  viability, T/C: 12.3%
[12]
  viability, T/C: 10.2%

## CC1(O)CCCC1n1c(=O)c(C(F)F)cc2cnc(NC3CCN(S(C)(=O)=O)CC3)nc21 (stereo unspecified) + CCn1c(-c2cc(N3CCN(C)CC3)cnc2C(C)OC)c2c3cc(ccc31)-c1csc(n1)CC(NC(=O)C1CC1C)C(=O)N1CCCC(N1)C(=O)OCC(C)(C)C2
Second compound 0.000949 µM
  IC50: < 31.6 nM
Second compound 0.003 µM
  IC50: < 31.6 nM
Second compound 0.00949 µM
  IC50: < 31.6 nM
Second compound 0.03 µM
  IC50: < 31.6 nM
Second compound 0.0949 µM
  IC50: < 31.6 nM
Second compound 0.3 µM
  IC50: < 31.6 nM
[1]
  viability, T/C: 30%
[2]
  viability, T/C: 30.3%
Second compound 0.000949 µM, first compound 0.316 µM
  viability, T/C: 34.5%
Second compound 0.000949 µM, first compound 1 µM
  viability, T/C: 34%
Second compound 0.000949 µM, first compound 3.16 µM
  viability, T/C: 38%
Second compound 0.000949 µM, first compound 10 µM
  viability, T/C: 40.2%
[3]
  viability, T/C: 27.9%
[4]
  viability, T/C: 25.8%
Second compound 0.003 µM, first compound 0.316 µM
  viability, T/C: 26.4%
Second compound 0.003 µM, first compound 1 µM
  viability, T/C: 30.1%
Second compound 0.003 µM, first compound 3.16 µM
  viability, T/C: 32.5%
Second compound 0.003 µM, first compound 10 µM
  viability, T/C: 49.2%
[5]
  viability, T/C: 23%
[6]
  viability, T/C: 20.7%
Second compound 0.00949 µM, first compound 0.316 µM
  viability, T/C: 22.4%
Second compound 0.00949 µM, first compound 1 µM
  viability, T/C: 23.3%
Second compound 0.00949 µM, first compound 3.16 µM
  viability, T/C: 26%
Second compound 0.00949 µM, first compound 10 µM
  viability, T/C: 28.8%
[7]
  viability, T/C: 18.8%
[8]
  viability, T/C: 19.8%
Second compound 0.03 µM, first compound 0.316 µM
  viability, T/C: 22.8%
Second compound 0.03 µM, first compound 1 µM
  viability, T/C: 20.4%
Second compound 0.03 µM, first compound 3.16 µM
  viability, T/C: 29.8%
Second compound 0.03 µM, first compound 10 µM
  viability, T/C: 44.2%
[9]
  viability, T/C: 19.3%
[10]
  viability, T/C: 22.8%
Second compound 0.0949 µM, first compound 0.316 µM
  viability, T/C: 21.2%
Second compound 0.0949 µM, first compound 1 µM
  viability, T/C: 24%
Second compound 0.0949 µM, first compound 3.16 µM
  viability, T/C: 24.9%
Second compound 0.0949 µM, first compound 10 µM
  viability, T/C: 47%
[11]
  viability, T/C: 18.9%
[12]
  viability, T/C: 21.1%
Second compound 0.3 µM, first compound 0.316 µM
  viability, T/C: 23.3%
Second compound 0.3 µM, first compound 1 µM
  viability, T/C: 22.4%
Second compound 0.3 µM, first compound 3.16 µM
  viability, T/C: 29.6%
Second compound 0.3 µM, first compound 10 µM
  viability, T/C: 50.5%
